pIC50: −log10 of the molar value.
Assays:
PDE10 (PDE10A) = molecular target: T1, PDE10 (PDE10A) (Bos taurus, UniProt A0A3Q1MHJ4); test: Measurement of PDE10 inhibitory activity (radiolabeled nucleotide PDE assay, Method-A or Method-B); type: biochemical; conditions: enzyme from bovine corpus striatum
T1 construct: isolated and prepared from bovine corpus striatum; from tissue; host or cells: bovine corpus striatum
T1 sequence (A0A3Q1MHJ4 1-1068): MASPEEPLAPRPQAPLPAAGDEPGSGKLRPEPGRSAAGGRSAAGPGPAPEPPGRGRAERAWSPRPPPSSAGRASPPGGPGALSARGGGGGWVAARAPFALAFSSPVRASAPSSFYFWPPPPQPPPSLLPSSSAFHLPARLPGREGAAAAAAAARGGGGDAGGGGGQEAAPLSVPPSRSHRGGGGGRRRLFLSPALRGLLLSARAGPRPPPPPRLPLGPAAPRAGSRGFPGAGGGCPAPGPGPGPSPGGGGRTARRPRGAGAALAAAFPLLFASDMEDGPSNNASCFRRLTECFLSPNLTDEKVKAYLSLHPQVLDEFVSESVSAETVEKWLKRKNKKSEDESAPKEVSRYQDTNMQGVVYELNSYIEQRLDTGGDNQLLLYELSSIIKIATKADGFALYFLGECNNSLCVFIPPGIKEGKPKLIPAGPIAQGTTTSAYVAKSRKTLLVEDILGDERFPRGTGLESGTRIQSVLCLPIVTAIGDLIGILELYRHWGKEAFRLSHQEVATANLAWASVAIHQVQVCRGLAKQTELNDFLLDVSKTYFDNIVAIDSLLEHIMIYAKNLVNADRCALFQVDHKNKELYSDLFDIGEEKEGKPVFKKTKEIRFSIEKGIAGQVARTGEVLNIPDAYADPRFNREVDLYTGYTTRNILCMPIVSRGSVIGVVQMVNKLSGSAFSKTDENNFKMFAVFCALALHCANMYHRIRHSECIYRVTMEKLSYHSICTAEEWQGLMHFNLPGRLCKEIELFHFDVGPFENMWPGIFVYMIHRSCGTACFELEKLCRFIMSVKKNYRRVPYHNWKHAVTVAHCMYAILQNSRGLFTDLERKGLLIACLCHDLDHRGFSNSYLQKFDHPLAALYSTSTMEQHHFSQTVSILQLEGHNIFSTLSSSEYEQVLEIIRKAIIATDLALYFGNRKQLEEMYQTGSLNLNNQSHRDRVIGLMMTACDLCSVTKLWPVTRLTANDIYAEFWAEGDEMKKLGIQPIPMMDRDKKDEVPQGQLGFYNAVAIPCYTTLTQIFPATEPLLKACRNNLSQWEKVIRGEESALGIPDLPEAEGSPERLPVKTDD
Procedure: (1) The enzyme PDE10 (PDE10A) was isolated and prepared from bovine corpus striatum, according to the methods described in references Fujishige et al., Eur. J. Biochem., vol. 266, pp. 1118-1127, 1999. The enzyme solution obtained was used for a PDE assay.
The PDE assay was performed according to the method described in Kotera et al. (Kotera et al., Biochem. Pharmacol., vol. 60, pp. 1333-1341, 2000), by the radiolabeled nucleotide method.
Specifically, the measurements of the inhibitory activities were carried out in one of the following methods.
(Method-A) The enzymatic reaction was carried out in 500 μl of assay buffer [50 mM Tris-HCl, pH8.0, 5 mM MgCl2, 4 mM 2-mercaptoethanol, 0.33 mg/ml bovine serum albumin] containing as a substrate about 4.8 nM [^3H]-cAMP+0.25 μM unlabeled cAMP (available from Amersham Biosciences) or about 9.6 nM [^3H]-cAMP.
The reaction was carried out for 30 minutes while keeping the temperature at 37° C. It was stopped by boiling the reaction mixture for 1.5 minutes, and further added thereto was 100 μl of snake venom (Crotalus atrox snake venom 1 mg/ml) and the temperature was kept at 37° C. for 30 minutes. Then 500 μl of methanol was added, and the reaction mixture was applied to a Dowex column (1×8 200-400). Subsequently, scintillation cocktail was added to each aliquot of the eluant, and the radioactivity was measured in a scintillation counter. Thus, PDE activity taking cAMP as a substrate (an activity to hydrolyze cAMP) was measured.
In the measurements of the inhibitory activities of compounds, a test compound was added to the above-mentioned reaction mixture, in various concentrations, and PDE activity was measured in the presence or absence of the test compound. From the measurements, its PDE10 (PDE10A) inhibitory activity was determined.
(Method-B) The test compounds were dissolved in dimethyl sulfoxide (DMSO). 2 μL of the compound solution was added to 96 well plate, and the reaction mixture (20 μL of PDE enzyme solution in 50 mM Tris-HCl, pH 8.0, 40 μL of the assay buffer (50 mM Tris-HCl, pH 8.0, 2 mM MgCl2, 0.07% 2-mercaptoethanol, and 0.825 mg/mL bovine serum albumin), and 20 μL of 1 mg/mL snake venom) was added to the 96 well plate. The enzyme reaction was started by adding and mixing with substrate solution of 20 μL containing approximate 35 nM [5′,8-3H]cAMP in 50 mM Tris-HCl, pH 8.0. The final concentration of cAMP in the reaction mixtures was 7 nM. The reaction mixtures were incubated at room temperature for 90 min under dark conditions. After incubation, the reaction was stopped by adding 100 μL of methanol and resultant solutions were applied to filter plate containing Dowex (1×8 200-400) and centrifuged. 50 μL of the eluate together with wash eluate with additional 100 μL methanol was collected in another plate and the radioactivity was measured with 250 μL of scintillant.
(2) The compounds in the Examples below were tested for PDE inhibition using (Method-A) or (Method-B) described above.

[1] = Method-A: [3H]-cAMP substrate, 37° C., 30 minutes
[2] = Method-B: 96 well plate, 7 nM cAMP, room temperature, 90 min

melting point [°C]	pIC50 (PDE10 (PDE10A); [1])	pIC50 (PDE10 (PDE10A); [2])	SMILES
199 to 201			COc1ccc(-c2cc(N3CCC(O)C3)nc(/C=C/c3nc(N(C)C)c4ccccc4n3)n2)cc1OC (stereo not shown) [Example 1.007, 1-(6-(3,4-dimethoxyphenyl)-2-{(E)-2-[4-(dimethylamino)quinazolin-2-yl]vinyl}pyrimidin-4-yl)pyrrolidin-3-ol]
103 to 108	9.36		COc1ccc(-c2cc(N3CCn4ccnc4C3)nc(/C=C/c3nc(N(C)C)c4ccccc4n3)n2)cc1OC [Example 1.008]
177 to 180	7.34		COc1ccc(-c2cc(N3CCN(C)CC3)nc(/C=C/c3nc(-n4ccnc4)c4ccccc4n3)n2)cc1OC [Example 1.010]
	8.38		COc1ccc(-c2cc(N3CCN(C)C3=O)nc(/C=C/c3nc(N4CCCC4)c4ccccc4n3)n2)cc1OC [Example 1.013]
	8.01		COc1ccc(-c2cc(N3CCCC3)nc(/C=C/c3nc(C)nc4c3CCN4C)n2)cc1OC [Example 1.055]
	7.54		COc1ccc(-c2cc(N3CCCC3)nc(/C=C/c3nc(C)cnc3C)n2)cc1OC [Example 1.057]
	7.51		Cc1cnc(/C=C/c2nc(-c3ccccn3)cc(N3CCCC3)n2)nc1N(C)C [Example 1.071]
126 to 131			COc1ccc(-c2cc(N3CCC(NC(=O)CN(C)C)C3)nc(/C=C/c3nc(N(C)C)c4ccccc4n3)n2)cc1OC (stereo not shown) [Example 1.104, N^1-[1-(6-(3,4-dimethoxyphenyl)-2-{(E)-2-[4-(dimethylamino)quinazolin-2-yl]vinyl}pyrimidin-4-yl)pyrrolidin-3-yl]-N^2,N^2-dimethylglycine amide]
		9.22	CN(C)c1nc(/C=C/c2nc(C(=O)NN3CCCCC3)cc(N3CCCC3)n2)nc2ccccc12 [Example 1.159]
		9.21	Cc1nc2ccccc2nc1/C=C/c1nc(C(=O)NC2CCOCC2)cc(N2CCCC2)n1 [Example 1.208]
		9.12	Cc1nc2ccccc2nc1/C=C/c1nc(C(=O)N(C2CCOCC2)C2CC2)cc(N2CCCC2)n1 [Example 1.211]
		9.31	Cc1nc2ccccc2nc1/C=C/c1nc(C(=O)NN2CCCCC2)cc(N2CCCC2)n1 [Example 1.220]
		7.70	Cc1nc2ccccc2nc1/C=C/c1nc(C(=O)N(C)C2CCOCC2)cc(N2CCC(O)C2)n1 (stereo not shown) [Example 1.226]
		8.85	CN(C(=O)c1cc(N2CCCC2)nc(/C=C/c2nc3ccccc3nc2C2CC2)n1)C1CCOCC1 [Example 1.253]
		8.60	Cc1cc2ccccc2nc1/C=C/c1nc(C(=O)NC2CCOCC2)cc(N2CCCC2)n1 [Example 1.260]
		9.15	Cc1nc2ccccc2nc1/C=C/c1nc(CNC2CCOCC2)cc(N2CCCC2)n1 [Example 1.268]
		9.05	CN(C)c1nc(/C=C/c2nc(OC3CCCCC3)cc(N3CCCC3)n2)nc2ccccc12 [Example 2.035]
		9.08	CC(C)=NOc1cc(N2CCCC2)nc(/C=C/c2nc(N(C)C)c3ccccc3n2)n1 [Example 2.039]
		9.68	CN(C)c1nc(/C=C/c2nc(OC[C@@H]3CCC(=O)N3)cc(N3CCCC3)n2)nc2ccccc12 [Example 2.048]
		9.19	Cc1nc(/C=C/c2nc(OC3CCOCC3)cc(N3CCCC3)n2)nc(N(C)C)c1C [Example 2.053]
	7.46		Cc1nc(OCc2cc(-c3ccco3)nc(N3CCCC3)n2)nc(N(C)C)c1C [Example 3.017]
	7.42		COc1cc(OC)nc(OCc2cc(-c3ccc(OC)c(OC)c3)nc(N3CCCC3)n2)n1 [Example 3.029]
	7.62		CN(C)c1nc(OCc2cc(N3CCCC3)nc(-c3cccnc3)n2)nc2ccccc12 [Example 3.034]
		9.07	Cc1nc2ccccc2nc1/C=C/c1cc(C(=O)NC2CCOCC2)nc(N2CCCC2)n1 [Example 4.001]
		8.48	Cc1nc2ccccc2nc1CCc1nc(C(=O)NC[C@@H]2CCCO2)cc(N2CCCC2)n1 [Example 5.006]
		8.64	CCOc1nc2ccccc2nc1CCc1nc(C(=O)NC2CCOCC2)cc(N2CCCC2)n1 [Example 5.012]
